Test results taken from patent US6489481B1, “Method for treating neurological disorders” (AstraZeneca AB, priority 1998, dated 2002).
Counter-ions that a name gives are not always drawn.

Legend:
[1] = target: T1, emopamil binding protein (Cavia porcellus, UniProt Q60490); assay: Displacement of 3H-emopamil binding to guinea pig liver membranes; conditions: 0.96 nM (-)-3H-emopamil
T1 construct: Guinea pig liver membranes: 40 mg/mL original wet weight; from tissue; host or cells: guinea pig liver membranes (male guinea pigs)
T1 sequence (Q60490 1-229): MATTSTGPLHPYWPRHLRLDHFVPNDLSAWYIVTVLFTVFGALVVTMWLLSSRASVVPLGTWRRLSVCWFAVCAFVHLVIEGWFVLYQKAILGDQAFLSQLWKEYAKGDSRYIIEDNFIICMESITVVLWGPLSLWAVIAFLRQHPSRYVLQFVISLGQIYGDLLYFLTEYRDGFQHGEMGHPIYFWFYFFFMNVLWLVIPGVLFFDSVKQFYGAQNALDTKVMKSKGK
Procedure: Displacement of ^3H-Emopamil Binding to Guinea Pig Liver Membranes
The method of displacement of ^3H-emopamil binding was a modification of Zech et al (1991) Eur. J. Pharm. 208:119-130.
The Guinea-pig liver membranes were prepared as follows: Male guinea pigs were sacrificed by CO2 asphyxiation with dry ice. The livers were quickly excised and weighed and rinsed in membrane preparation buffer containing 10 mM Hepes, 1 mM Tris base-EDTA, 250 mM sucrose, pH 7.4. The livers were then minced homogenized in 10 times volume with a motor driven Teflon-glass homogenizer with three strokes on ice. The homogenate was centrifuged at 1000×g in a SS34 rotor for 5 minutes at 4° C. The supernatant was filtered through 4 layers of gauze and then centrifuged at 8000×g for 10 minutes 4° C. This resulting supernatant was centrifuged at 40,000×g for 15 minutes at 4° C. The resulting pellet was resuspended in assay buffer and centrifuged again at 40,000×g for 15 minutes at 4° C. This pellet was resuspended in assay buffer (2.5 fold with respect to original wet weight) and homogenized with one stroke with the Teflon-glass homogenizer. Aliquots of 1 mL were stored at −70° C.
The displacement assay was performed as follows: The reaction mixture contained: Assay buffer: 10 mM Tris-HCl, 0.1 mM phenylmethylsulfonyl fluoride (PMSF), 0.2% bovine serum albumin (BSA), pH 7.4 at […]. […]

[2] = test system: PC12 cells; assay: Inhibition of apoptosis in PC12 cells induced by NGF withdrawal (Cell Death Detection ELISA); assay type: cell-based, rat
Procedure: Inhibition of Apoptosis in PC12 Cells Induced by NGF Withdrawal
Rat PC12 cells (ATCC Accession Number CRL-1721) were grown in RPMI0-1640 buffer containing 10% heat-inactivated Fetal Bovine Serum (FBS) and 1% L-glutamine (Gibco). Cells were plated in 100 mm Collagen I Falcon plates (Becton Dickinson)at a density of ˜1×10^6-2×10^6 and passed every other day at 1:10 ratio (cells were trypsinized and centrifuged at 1000 rpm for 5 min. Cells were resuspended and plated at the density of 1-2×10^6 cells). Tamoxifen was dissolved in DMSO at a concentration of 10 mM. Subsequent dilutions were done in PC12 cell growth medium containing 1% FBS. […]
Cells were harvested at various time points after the NGF withdrawal procedure to determine the time course of cell death. […] Compounds were used at various concentrations and the extent of apoptosis that occurred in the presence of compounds was expressed as a percentage relative to control cultures that were exposed to vehicle only. […]
Cell death was measured using a Cell Death Detection ELISA (Boehringer-Mannheim Cat# 1774425) according to manufacturers instructions.The ELISA is a photometric enzyme-immunoassay which determines the amount of cytoplasmic histone-associated-DNA-fragments after induced cell death. […]

[3] = test system: mouse cortical neurons; assay: Inhibition of NMDA-induced death of mouse cortical neurons in primary cell culture (LDH); assay type: cell-based; conditions: result in words; NMDA-induced neuronal death is the patent's necrosis model
Procedure: Inhibition of NMDA-induced Death of Mouse Cortical Neurons in Primary Cell Culture
A glial feeder layer was prepared from post-natal day 1 or 2 mice. Cortices were dissected in a Ca^2+/Mg^2+-free balanced salt solution, minced, incubated in media stock (MS: GIBCO's MEM supplemented with bicarbonate, glucose, and glutamine) containing trypsin for 30 minutes at 37° C., and centrifuged at 1500 g for 5 minutes to produce a cell pellet. The pellet was re-suspended in plating media (MS supplemented with horse and fetal calf serum) and triturated with a glass pasteur pipette. Cells were plated in 24-well Falcon Primaria tissue culture dishes at a density of 0.5 hemispheres per plate. The dishes had been coated overnight with 10 mg/ml mouse laminin and 25 mg/ml poly-lysine, then washed three times with water. The glial feeder layer was maintained in a humidified atmosphere of 5% CO2/95% air at 37° C. for two weeks. […]
LDH activity was measured as follows: 50 ml of cell-culture media from each well was mixed with 200 ml 0.1 M KH2PO4 containing 30 mg NADH, in a 96-well microtitre plate. After 10 minutes at room temperature, 30 ml of 2.4 mM sodium pyruvate was added, and the absorbance of this solution at 340nm was immediately measured at 15 second intervals for approximately 6 minutes using a Molecular Devices Spectromax 250 plate-reader. […]

IC50 [1]	Structure (SMILES)	percentage in the PC12 assay (extent of apoptosis relative to control) ([2]; relative to vehicle-only control cultures, 100% = no inhibition of apoptosis, 0% = total inhibition)	inhibition of apoptosis ([2]; result in words)	inhibition of necrosis [3]
75 nM	CC/C(=C(/c1ccc(OCCN(C)C)cc1)c1ccc(OC(=O)C(C)(C)C)cc1)c1ccccc1 [Example 11, 2,2-dimethyl-, 4-[1-[4-[2-(dimethylamino)ethoxy]phenyl]-2-phenyl-1-butenyl]phenyl Propanoic acid ester, (E)-]	41%	–	–
–	CC/C(=C(\c1ccccc1)c1ccc(OCCN(C)C)cc1)c1ccccc1 [tamoxifen citrate]	–	inhibit both apoptosis and necrosis	inhibit both apoptosis and necrosis
